These results are taken from patent publication US8093052B2, “Serum-free culture medium for the production of recombinant gonadotropins” (Ares Trading S.A., priority 2005, dated 2012).

Structures are written as SMILES. Read-outs that look alike come from different tables or passages of the source.

One data set relates to oxidized forms of rFSH. The data set is described as follows: Oxidized forms of rFSH by RP-HPLC on crude harvest of CHO culture in serum-free medium with antioxidant. As to conditions: for ranking of antioxidants for obtaining low levels of rFSH oxidized forms: Runs 1 and 2, Table II; for antioxidant quality from analyses of oxidized rFSH forms: antioxidant added to the culture medium, runs 3 to 5. The class given is cell-based, human. On the procedure:
(§1) All experiments were performed with a CHO cell line expressing both subunits of human FSH. The produced protein is a dimeric gonadotropin further referred to as rFSH. The alpha subunit corresponds to SwissProt Accession No. P01215 and the beta subunit corresponds to SwissProt Accession No. P01225.
The medium used for cell cultivation was a basic serum-free medium (SFM) designed for cultivation of CHO cells. The SFM medium was supplemented with the antioxidant to be tested as detailed in Example 3.
(§2) At least 2.4.10^9 viable rFSH-producing cells were transferred to a 15 L bioreactor with an effective working volume of 11 L (newMBR, Zürich) comprising microcarriers. Immediately after seeding followed a batch phase that lasted for two or three days. The bioreactor was then continuously fed with SFM to a dilution rate of 1 day^−1 and to a perfusion rate at 11 L·day)^−1.
Growth phase and production phase were performed at the same pH and temperature (37° C., pH=7). The Dissolved Oxygen (DO) was maintained at 50% air saturation during the whole run.
Oxidized forms were determined by RP-HPLC on crude harvest as described by Bassett and Driebergen (Bassett and Driebergen, 2005).
SFM was supplemented with several antioxidant or combination of antioxidants in order to reach the final concentration shown in Table II. Each antioxidant or combination of antioxidants was tested for a period of about ten days. The first day of the test, the volume of antioxidant solution necessary to reach the set-point was added. Every day thereafter, a certain amount of antioxidant was washed out from the bioreactor by perfusion and replaced by one time addition (for a dilution rate of 1 d^−1, 63.2% of the bioreactor volume was renewed every 24 h and this represents the amount of antioxidant to be replaced every day). At the end of the test period, the antioxidant was washed out from the bioreactor by perfusion, and replaced by another antioxidant to be tested.
The percentage of oxidized forms of rFSH was measured at the end of each test (table II).
One run (run 3) was performed to test various concentrations of L-glutathione (from 1 to 20 mg/L), and one run (run 4) was performed to test various concentrations of L-methionine (from 0.25 to 3 g/L) and. […] Working Day zero (WDO) is defined as the day during which the bioreactor is seeded. Production Day zero (PDO) is defined as the day during which the cell culture process is switch from growth phase to production phase. In addition, a run was performed without varying the antioxidant concentration. In this run, the L-methionine was added at 250 mg/L from the beginning (run 5). For all runs, the percentage of oxidized forms of rFSH was measured regularly (table IV).

In data set [1] the test system is CHO cell line expressing both subunits of human FSH. As to the kind of experiment: Total viable cells ratio (TVC ratio) during antioxidant test period. The class given is cell-based, Chinese Hamster. As to conditions: end of test/start of test, >=1.0 = no toxic effect. As to the method:
as §1, §2
The total viable cell concentration is defined as the sum of the concentration of cells attached on microcarriers and the concentration of viable cells in suspension.
The Total Viable Cells Ratio (TVC Ratio) for was calculated as follows: [total viable cell concentration, end of test]/[total viable cell concentration, start of test] wherein the start of test is defined as the day at which a new antioxidant is introduced in the culture, and the end of test is defined as the day before the next antioxidant is introduced in the culture.
(§3) The total viable cell concentration, the GCR and the rFSH titers were measured daily.

Data set [2] has the same test system. On the procedure: The rFSH titer was measured by an immunofluorimetric assay, using the Delphia hFSH kit from Wallac-ADL (Cat. No. A017-201).
The glucose consumption rate (GCR), expressed in gram per liter and per day, was calculated as follows: GCR=(G0−Gt)Dt+(Gt−1−Gt)
G stands for “Glucose concentration” and D stands for “dilution rate”. The indexes refer to the following:
as §3

With `OCCS` [2-mercaptoethanol], in the data set on oxidized forms of rFSH (Run 1, 10 mg/L, measured WD59, divided by 23.4% (L-cysteine 280 mg/L, run 2)), the “oxidized forms (normalized value)” value was 0.53. Also, the “% of oxidized forms” value with oxidized forms of rFSH (Run 1, mean concentration 10 mg/L, tested WD50 to WD60, measured WD59) turned out to be 12.3%. The “ranking of antioxidants for obtaining low levels of rFSH oxidized forms” value (shortened to “ranking of antioxidants”) in the data set with oxidized forms of rFSH is on record as “best antioxidants for obtaining low levels of rFSH oxidized forms”. Also, the “TVC Ratio” value in data set [1] (Run 1, 10 mg/L, WD50 to WD60) is listed as 0.8.

With `O=C1O[C@H]([C@@H](O)CO)C(O)=C1O` [L-ascorbic acid], in the data set with oxidized forms of rFSH (Run 1, 10 mg/L, measured WD30, divided by 23.4% (L-cysteine 280 mg/L, run 2)), the “oxidized forms (normalized value)” value turned out to be 0.74. The “% of oxidized forms” value with oxidized forms of rFSH (Run 1, mean concentration 10 mg/L, tested WD20 to WD30, measured WD30) was 17.3%. The “TVC Ratio” value in data set [1] (Run 1, 10 mg/L, WD20 to WD30) stood at 1.3.

In the case of `N[C@@H](CS)C(=O)O` [L-cysteine, reference compound], the “oxidized forms (normalized value)” value worked out at 0.92 in the data set on oxidized forms of rFSH (Run 1, 280 mg/L, measured WD20, divided by 23.4% (L-cysteine 280 mg/L, run 2)); 1.00 in the data set on oxidized forms of rFSH (Run 2, 280 mg/L, measured WD20, the reference itself (23.4%)); 0.88 in the data set with oxidized forms of rFSH (Run 2, 350 mg/L, measured WD50, divided by 23.4% (L-cysteine 280 mg/L, run 2)). Also, the “% of oxidized forms” value in the data set with oxidized forms of rFSH (Run 1, mean concentration 280 mg/L, tested WD10 to WD20, measured WD20) stood at 21.5%; in the data set with oxidized forms of rFSH (Run 2, mean concentration 280 mg/L, tested WD0 to WD20, measured WD20) it was 23.4%; in the data set on oxidized forms of rFSH (Run 2, mean concentration 350 mg/L, tested WD40 to WD50, measured WD50) it was 20.5%.

In the case of `N[C@@H](CCC(=O)N[C@@H](CS)C(=O)NCC(=O)O)C(=O)O` [L-glutathione], the “oxidized forms (normalized value)” value with oxidized forms of rFSH (Run 1, 3 mg/L, measured WD50, divided by 23.4% (L-cysteine 280 mg/L, run 2)) is recorded as 0.61. In addition, the “% of oxidized forms” value in the data set with oxidized forms of rFSH (Run 1, mean concentration 3 mg/L, tested WD40 to WD50, measured WD50) stood at 14.2%. The “decrease of percentage of oxidized forms” value in the data set with oxidized forms of rFSH (Run 3, 2.5 mg/L, compared to run 1 and run 2 with L-cysteine as antioxidant) is on record as “around 35%”. Further, the “% oxidized forms” value in the data set on oxidized forms of rFSH (Run 3, mean concentration 1 mg/L, measured WD19) was determined as 18.31%; with oxidized forms of rFSH (Run 3, mean concentration 2.5 mg/L, measured WD28), 14.26%; in the data set on oxidized forms of rFSH (Run 3, mean concentration 5 mg/L, measured WD40), 23.99%. Besides, in the data set with oxidized forms of rFSH, the “ranking of antioxidants” value is “best antioxidants for obtaining low levels of rFSH oxidized forms”. Further, in the data set with oxidized forms of rFSH, the “antioxidant quality from analyses of oxidized rFSH forms” value is “good antioxidant”. The “TVC Ratio” value in data set [1] (Run 1, 3 mg/L, WD40 to WD50) came out at 1.2. The “impact on viability of the cells, metabolism and productivity patterns” value in data set [2] was “did not have any major impact”.

For `CSCC[C@H](N)C(=O)O` [L-methionine], the “oxidized forms (normalized value)” value with oxidized forms of rFSH (Run 1, 186 mg/L, measured WD38, divided by 23.4% (L-cysteine 280 mg/L, run 2)) is listed as 0.61; with oxidized forms of rFSH (Run 1, 734 mg/L, measured WD70, divided by 23.4% (L-cysteine 280 mg/L, run 2)) it was 0.60. Moreover, the “% of oxidized forms” value was found to be 14.3% in the data set with oxidized forms of rFSH (Run 1, mean concentration 186 mg/L, tested WD30 to WD40, measured WD38) and 14.0% in the data set with oxidized forms of rFSH (Run 1, mean concentration 734 mg/L, tested WD60 to WD70, measured WD70). The “% oxidized forms” value in the data set with oxidized forms of rFSH (Run 4, mean concentration 250 mg/L, measured WD19) was determined as 15.37%; in the data set with oxidized forms of rFSH (Run 4, mean concentration 500 mg/L, measured WD28) it was 14.26%; with oxidized forms of rFSH (Run 4, mean concentration 1000 mg/L, measured WD40) it was 13.56%; in the data set with oxidized forms of rFSH (Run 4, mean concentration 2000 mg/L, measured WD49), 9.77%; with oxidized forms of rFSH (Run 4, mean concentration 3000 mg/L, measured WD59), 12.66%; in the data set with oxidized forms of rFSH (Run 5, 250 mg/L from the beginning, measured WD16-17), 16.91%. Besides, the “% oxidized forms” value with oxidized forms of rFSH (Run 5, 250 mg/L from the beginning, measured WD20-21) was determined as 14.45%; in the data set on oxidized forms of rFSH (Run 5, 250 mg/L from the beginning, measured WD22-23) it was 12.94%; in the data set on oxidized forms of rFSH (Run 5, 250 mg/L from the beginning, measured WD24-25), 12.16%; with oxidized forms of rFSH (Run 5, 250 mg/L from the beginning, measured WD26-27), 10.54%; in the data set on oxidized forms of rFSH (Run 5, 250 mg/L from the beginning, measured WD28-29), 12.83%; with oxidized forms of rFSH (Run 5, 250 mg/L from the beginning, measured WD30-31), 13.21%. Besides, the “decrease of average percentage of oxidized forms” value with oxidized forms of rFSH (Run 5, 250 mg/L, compared to run 1 and run 2 with L-cysteine as antioxidant) was “around 40%”. For the same molecule, the “ranking of antioxidants” value in the data set with oxidized forms of rFSH is reported as “best antioxidants for obtaining low levels of rFSH oxidized forms”. The “antioxidant quality from analyses of oxidized rFSH forms” value in the data set on oxidized forms of rFSH was “good antioxidant”. Moreover, the “TVC Ratio” value in data set [1] (Run 1, 186 mg/L, WD30 to WD40) was determined as 1.4; in data set [1] (Run 1, 734 mg/L, WD60 to WD70), 1.0. Further, the “impact on viability of the cells, metabolism and productivity patterns” value in data set [2] (in the range of concentration tested (runs 3 to 5), data not shown) is “did not have any major impact”.

As for `CC(=O)N[C@@H](CS)C(=O)O` [N-acetyl-L-cysteine], the “oxidized forms (normalized value)” value in the data set with oxidized forms of rFSH (Run 2, 260 mg/L, measured WD38, divided by 23.4% (L-cysteine 280 mg/L, run 2)) was found to be 0.77. Also, the “% of oxidized forms” value in the data set with oxidized forms of rFSH (Run 2, mean concentration 260 mg/L, tested WD30 to WD40, measured WD38) amounted to 18.1%. Moreover, in data set [1] (Run 2, 260 mg/L, WD30 to WD40), the “TVC Ratio” value was 1.3.
